From PubChem BioAssay (NCI)
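A five-concentration, 48-hour dose response in 96-well plates underlies each endpoint, interpolated linearly between surrounding concentrations. TGI: concentration producing complete growth inhibition.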

What was measured:
Assay in all cases: NCI-60 cell line screen, 48 h
CAKI-1 renal = test system: CAKI-1 renal
RXF 393 renal = test system: RXF 393 renal
M14 melanoma = test system: M14 melanoma
SN12C renal = test system: SN12C renal
MCF7 breast = test system: MCF7 breast
IGROV1 ovarian = test system: IGROV1 ovarian
SR leukemia = test system: SR leukemia
K-562 leukemia = test system: K-562 leukemia
NCI-H23 lung = test system: NCI-H23 lung
OVCAR-3 ovarian = test system: OVCAR-3 ovarian
SK-MEL-28 melanoma = test system: SK-MEL-28 melanoma
PC-3 prostate = test system: PC-3 prostate
U251 CNS = test system: U251 CNS
HS 578T breast = test system: HS 578T breast
OVCAR-4 ovarian = test system: OVCAR-4 ovarian
RPMI-8226 leukemia = test system: RPMI-8226 leukemia
HCT-116 colon = test system: HCT-116 colon
SNB-19 CNS = test system: SNB-19 CNS
HOP-92 NSCLC = test system: HOP-92 NSCLC

SMILES: O=C(/C=C(\Nc1ccccc1O)c1ccccc1)C(=O)NC12CC3CC(CC(C3)C1)C2
- TGI (CAKI-1 renal): > 10 µM
- TGI (RXF 393 renal): > 10 µM
- TGI (M14 melanoma): > 10 µM
- TGI (SN12C renal): > 10 µM
- TGI (MCF7 breast): > 10 µM
- TGI (IGROV1 ovarian): > 10 µM
- TGI (SR leukemia): > 10 µM
- TGI (K-562 leukemia): > 10 µM
- TGI (NCI-H23 lung): > 10 µM
- TGI (OVCAR-3 ovarian): > 10 µM
- TGI (SK-MEL-28 melanoma): > 10 µM
- TGI (PC-3 prostate): > 10 µM
- TGI (U251 CNS): > 10 µM
- TGI (HS 578T breast): > 10 µM
- TGI (OVCAR-4 ovarian): > 10 µM
- TGI (RPMI-8226 leukemia): > 10 µM

SMILES: COC(=O)/C=C1/N=C(N(C)/N=C/c2ccccc2)NC1=O
- TGI (CAKI-1 renal): > 100 µM
- TGI (RXF 393 renal): > 100 µM
- TGI (M14 melanoma): > 100 µM
- TGI (SN12C renal): > 100 µM
- TGI (MCF7 breast): > 100 µM
- TGI (IGROV1 ovarian): > 100 µM
- TGI (HCT-116 colon): > 100 µM
- TGI (SR leukemia): > 100 µM
- TGI (K-562 leukemia): > 100 µM
- TGI (NCI-H23 lung): > 100 µM
- TGI (OVCAR-3 ovarian): > 100 µM
- TGI (SK-MEL-28 melanoma): > 100 µM
- TGI (PC-3 prostate): > 100 µM
- TGI (SNB-19 CNS): > 100 µM
- TGI (HS 578T breast): > 100 µM
- TGI (OVCAR-4 ovarian): > 100 µM

SMILES: O=c1cc(CC(O)(C(F)(F)Cl)C(F)(F)Cl)[nH]n1-c1ccccc1
- TGI (RXF 393 renal): > 100 µM
- TGI (M14 melanoma): > 100 µM
- TGI (SN12C renal): > 100 µM
- TGI (HOP-92 NSCLC): > 100 µM
- TGI (MCF7 breast): > 100 µM
- TGI (IGROV1 ovarian): > 100 µM
- TGI (HCT-116 colon): > 100 µM
- TGI (SR leukemia): > 100 µM
- TGI (K-562 leukemia): > 100 µM
- TGI (NCI-H23 lung): > 100 µM
- TGI (SK-MEL-28 melanoma): > 100 µM
- TGI (SNB-19 CNS): > 100 µM
- TGI (U251 CNS): > 100 µM
- TGI (HS 578T breast): > 100 µM
- TGI (OVCAR-4 ovarian): > 100 µM
- TGI (RPMI-8226 leukemia): > 100 µM

SMILES: Cc1c(C(=O)O)c2cc3ccccc3cc2c(=O)n1C
- TGI (RXF 393 renal): > 10 µM
- TGI (M14 melanoma): > 10 µM
- TGI (SN12C renal): > 10 µM
- TGI (HOP-92 NSCLC): > 10 µM
- TGI (MCF7 breast): > 10 µM
- TGI (IGROV1 ovarian): > 10 µM
- TGI (SR leukemia): > 10 µM
- TGI (NCI-H23 lung): > 10 µM
- TGI (OVCAR-3 ovarian): > 10 µM
- TGI (PC-3 prostate): > 10 µM
- TGI (SNB-19 CNS): > 10 µM
- TGI (U251 CNS): > 10 µM
- TGI (HS 578T breast): > 10 µM
- TGI (OVCAR-4 ovarian): > 10 µM

SMILES: COC(=O)NN=C(c1ccc(Cl)cc1)c1ccc(Cl)cc1
- TGI (CAKI-1 renal): > 100 µM
- TGI (RXF 393 renal): > 100 µM
- TGI (M14 melanoma): > 100 µM
- TGI (SN12C renal): > 100 µM
- TGI (MCF7 breast): > 100 µM
- TGI (IGROV1 ovarian): > 100 µM
- TGI (HCT-116 colon): > 100 µM
- TGI (SR leukemia): > 100 µM
- TGI (K-562 leukemia): > 100 µM
- TGI (NCI-H23 lung): > 100 µM
- TGI (OVCAR-3 ovarian): > 100 µM
- TGI (SK-MEL-28 melanoma): > 100 µM
- TGI (PC-3 prostate): > 100 µM
- TGI (SNB-19 CNS): > 100 µM
- TGI (U251 CNS): > 100 µM
- TGI (HS 578T breast): > 100 µM
- TGI (OVCAR-4 ovarian): > 100 µM
- TGI (RPMI-8226 leukemia): > 100 µM

SMILES: Cc1nc2ccccc2c(=O)n1NC(=O)c1ccccc1O
- TGI (RXF 393 renal): > 100 µM
- TGI (M14 melanoma): > 100 µM
- TGI (SN12C renal): > 100 µM
- TGI (HOP-92 NSCLC): > 100 µM
- TGI (MCF7 breast): > 100 µM
- TGI (IGROV1 ovarian): > 100 µM
- TGI (HCT-116 colon): > 100 µM
- TGI (SR leukemia): > 100 µM
- TGI (K-562 leukemia): > 100 µM
- TGI (NCI-H23 lung): > 100 µM
- TGI (OVCAR-3 ovarian): > 100 µM
- TGI (SK-MEL-28 melanoma): > 100 µM
- TGI (PC-3 prostate): > 100 µM
- TGI (SNB-19 CNS): > 100 µM
- TGI (U251 CNS): > 100 µM
- TGI (HS 578T breast): > 100 µM
- TGI (OVCAR-4 ovarian): > 100 µM
- TGI (RPMI-8226 leukemia): > 100 µM

SMILES: CN1CCN(C(=S)N(C(=O)c2ccco2)c2ccccc2)CC1
- TGI (RXF 393 renal): > 100 µM
- TGI (M14 melanoma): > 100 µM
- TGI (SN12C renal): > 100 µM
- TGI (HOP-92 NSCLC): > 100 µM
- TGI (MCF7 breast): > 100 µM
- TGI (IGROV1 ovarian): > 100 µM
- TGI (SR leukemia): > 100 µM
- TGI (K-562 leukemia): > 100 µM
- TGI (NCI-H23 lung): > 100 µM
- TGI (OVCAR-3 ovarian): > 100 µM
- TGI (SK-MEL-28 melanoma): > 100 µM
- TGI (SNB-19 CNS): > 100 µM
- TGI (U251 CNS): > 100 µM
- TGI (HS 578T breast): > 100 µM
- TGI (OVCAR-4 ovarian): > 100 µM
- TGI (RPMI-8226 leukemia): > 100 µM

SMILES: COc1ccccc1S(=O)Nc1ccccc1 (stereo not drawn)
- TGI (SN12C renal): > 100 µM
- TGI (MCF7 breast): > 100 µM
- TGI (IGROV1 ovarian): > 100 µM
- TGI (HCT-116 colon): > 100 µM
- TGI (SR leukemia): > 100 µM
- TGI (K-562 leukemia): > 100 µM
- TGI (NCI-H23 lung): > 100 µM
- TGI (OVCAR-3 ovarian): > 100 µM
- TGI (SK-MEL-28 melanoma): > 100 µM
- TGI (SNB-19 CNS): > 100 µM
- TGI (U251 CNS): > 100 µM
- TGI (HS 578T breast): > 100 µM
- TGI (OVCAR-4 ovarian): > 100 µM
- TGI (RPMI-8226 leukemia): > 100 µM

SMILES: COc1ccc(C2=NN(c3ccccc3)C(c3cc4cc(Br)ccc4nc3Cl)C2)cc1 (stereo not drawn)
- TGI (CAKI-1 renal): > 25 µM
- TGI (RXF 393 renal): > 25 µM
- TGI (M14 melanoma): > 25 µM
- TGI (SN12C renal): > 25 µM
- TGI (HOP-92 NSCLC): > 25 µM
- TGI (IGROV1 ovarian): > 25 µM
- TGI (HCT-116 colon): > 25 µM
- TGI (SR leukemia): > 25 µM
- TGI (K-562 leukemia): > 25 µM
- TGI (NCI-H23 lung): > 25 µM
- TGI (OVCAR-3 ovarian): > 25 µM
- TGI (SK-MEL-28 melanoma): > 25 µM
- TGI (PC-3 prostate): > 25 µM
- TGI (SNB-19 CNS): > 25 µM
- TGI (HS 578T breast): > 25 µM
- TGI (OVCAR-4 ovarian): > 25 µM
- TGI (RPMI-8226 leukemia): > 25 µM

SMILES: C=C1CC(Cn2cc(C)c(=O)[nH]c2=O)(c2ccc(-c3ccccc3)cc2)OC1=O (stereo not drawn)
- TGI (CAKI-1 renal): 4.94 µM
- TGI (SN12C renal): 8.26 µM
- TGI (HOP-92 NSCLC): 3.75 µM
- TGI (MCF7 breast): 5.87 µM
- TGI (IGROV1 ovarian): 3.74 µM
- TGI (HCT-116 colon): 2.03 µM
- TGI (SR leukemia): 12.8 µM
- TGI (K-562 leukemia): 2.3 µM
- TGI (NCI-H23 lung): 3.99 µM
- TGI (OVCAR-3 ovarian): 1.66 µM
- TGI (SK-MEL-28 melanoma): 3.75 µM
- TGI (PC-3 prostate): 5.31 µM
- TGI (SNB-19 CNS): 27.4 µM
- TGI (U251 CNS): 16.1 µM
- TGI (HS 578T breast): > 21.2 µM
- TGI (OVCAR-4 ovarian): 6.76 µM
- TGI (RPMI-8226 leukemia): 1.9 µM

SMILES: CCOC(=O)c1cccc([N+](=O)[O-])c1N
- TGI (CAKI-1 renal): > 100 µM
- TGI (M14 melanoma): > 100 µM
- TGI (SN12C renal): > 100 µM
- TGI (HOP-92 NSCLC): > 100 µM
- TGI (MCF7 breast): > 100 µM
- TGI (IGROV1 ovarian): > 100 µM
- TGI (HCT-116 colon): > 100 µM
- TGI (SR leukemia): > 100 µM
- TGI (K-562 leukemia): > 100 µM
- TGI (NCI-H23 lung): > 100 µM
- TGI (OVCAR-3 ovarian): > 100 µM
- TGI (SK-MEL-28 melanoma): > 100 µM
- TGI (PC-3 prostate): > 100 µM
- TGI (SNB-19 CNS): > 100 µM
- TGI (U251 CNS): > 100 µM
- TGI (HS 578T breast): > 100 µM
- TGI (OVCAR-4 ovarian): > 100 µM
- TGI (RPMI-8226 leukemia): > 100 µM

SMILES: Cc1ccc(CS(=O)(=O)C/N=c2\sc3ccccc3nc2/C=C(\O)c2ccc(Cl)cc2)cc1
- TGI (CAKI-1 renal): > 10 µM
- TGI (M14 melanoma): > 10 µM
- TGI (SN12C renal): > 10 µM
- TGI (HOP-92 NSCLC): > 10 µM
- TGI (MCF7 breast): > 10 µM
- TGI (IGROV1 ovarian): > 10 µM
- TGI (HCT-116 colon): > 10 µM
- TGI (SR leukemia): > 10 µM
- TGI (K-562 leukemia): > 10 µM
- TGI (NCI-H23 lung): > 10 µM
- TGI (OVCAR-3 ovarian): > 10 µM
- TGI (SK-MEL-28 melanoma): > 10 µM
- TGI (PC-3 prostate): > 10 µM
- TGI (SNB-19 CNS): > 10 µM
- TGI (U251 CNS): > 10 µM
- TGI (HS 578T breast): > 10 µM
- TGI (OVCAR-4 ovarian): > 10 µM
- TGI (RPMI-8226 leukemia): > 10 µM
